These are literature values, as cited in PubChem BioAssay AID1259409 (Chemical Carcinogenesis Research Information System (CCRIS), 2018).

“And” between values parts separate entries of the source, which are not always exact repeats. Identical values can stand only once.

The subject of this data set is rodent chemically induced tumor inhibition, incidence and multiplicity. Put plainly: CCRIS tumor inhibitor studies. The following applies: Route [Inhibitor]: ORAL, Species: RAT.

For the compound `CC1=C(/C=C/C(C)=C/C=C/C(C)=C/C(=O)Nc2ccc(O)cc2)C(C)(C)CCC1`, the “tumour outcome (control, treated, inhibition, significance)” value is, setting by setting: (Carcinogen: N-METHYL-N'-NITROSOUREA, 684-93-5, Dose [Inhibitor]: 0, 782 MG/KG IN DIET FOR DURATION OF STUDY BEGINNING 60 D PRIOR TO CARCINOGEN DOSE (STUDY DURATION: 240 D), Strain/Sex: SPRAGUE-DAWLEY/FEMALE, Target Tissue: Type of Lesion: MAMMARY GLAND: TUMOR, Dose [Carcinogen]: 50 MG/KG BW ONCE, Promoter: NONE USED) 80%, 28%, 65%, p<0.oo5 and 68%, 42%, 38%, p<0.005; (Carcinogen: N-METHYL-N-NITROSOUREA [684-93-5], Dose [Inhibitor]: 2 MMOL/KG IN DIET FOR 6 WK BEGINNING 4 WK POST LAST CARCINOGEN DOSE (STUDY DURATION: 11 WK), Strain/Sex: SPRAGUE-DAWLEY/FEMALE, Target Tissue: Type of Lesion: MAMMARY GLAND: CARCINOMA, Dose [Carcinogen]: 50 MG/KG BW IP 1X/WK FOR 2 WK (STUDY DURATION: 11 WK), Promoter: NONE) 95.4%, 87.5%, 8.3%; (Carcinogen: N-METHYL-N-NITROSOUREA [684-93-5], Dose [Inhibitor]: 2 MMOL/KG IN DIET FOR 10 WK BEGINNING 2 D POST LAST CARCINOGEN DOSE (STUDY DURATION: 11 WK), Strain/Sex: SPRAGUE-DAWLEY/FEMALE, Target Tissue: Type of Lesion: MAMMARY GLAND: CARCINOMA, Dose [Carcinogen]: 50 MG/KG BW IP 1X/WK FOR 2 WK (STUDY DURATION: 11 WK), Promoter: NONE) 95.4%, 45.0%, 53%, p<0.05; (Carcinogen: N-METHYL-N-NITROSOUREA [684-93-5], Dose [Inhibitor]: 196 MG/KG DIET BEGINNING 7 D PRIOR TO CARCINOGEN DOSE (STUDY DURATION: 187 D), Strain/Sex: SPRAGUE-DAWLEY/FEMALE, Target Tissue: Type of Lesion: MAMMARY GLAND: ADENOCARCINOMA, Dose [Carcinogen]: 50 MG/KG BW ONCE AT 100 D OF AGE) 23/40 (57%), 17/40 (43%), 24.6%,p<0.01; (Carcinogen: N-METHYL-N-NITROSOUREA [684-93-5], Dose [Inhibitor]: 586 MG/KG DIET BEGINNING 3 D POST-CARCINOGEN DOSE (STUDY DURATION: 150 D), Strain/Sex: SPRAGUE-DAWLEY/FEMALE, Target Tissue: Type of Lesion: MAMMARY GLAND: ADENOCARCINOMA, Dose [Carcinogen]: 50 MG/KG BW ONCE AT 50 D OF AGE) 25/25 (100%), 24/25 (96%), 4%, not significant; (Carcinogen: N-METHYL-N-NITROSOUREA, 684-93-5, Dose [Inhibitor]: 0, 1 MMOL/KG IN DIET FOR 7 MO BEGINNING 7 MO POST CARCINOGEN DOSE (STUDY DURATION: 14 MO), Strain/Sex: LOBUND WISTAR/MALE, Target Tissue: Type of Lesion: PROSTATE: ADENOCARCINOMA, Dose [Carcinogen]: 30 MG/KG BW ONCE, Promoter: TESTOSTERONE PROPIONATE, 57-85-2) 16/18 (89%), 4/19 (21%), 76%, p<0.001. The “tumour outcome (control, treated, inhibition, significance)” value (Carcinogen: N-METHYL-N-NITROSOUREA, 684-93-5, Dose [Inhibitor]: 0, 328 MG/KG OF DIET FOR DURATION OF STUDY BEGINNING 1 WK PRIOR TO CARCINOGEN TREATMENT (STUDY DURATION: 117 D), Strain/Sex: SPRAGUE-DAWLEY/FEMALE, Target Tissue: Type of Lesion: MAMMARY GLAND: ADENOCARCINOMA, Dose [Carcinogen]: 50 MG/KG BW ONCE, Promoter: NONE USED) is listed as 100%, 84%, 16%, not significant; the “tumour outcome (control, treated, inhibition, significance)” value (Carcinogen: N-METHYL-N-NITROSOUREA, 684-93-5, Dose [Inhibitor]: 0, 391 MG/KG DIET BEGINNING AFTER THE SURGICAL REMOVAL OF THE FIRST PALPABLE TUMOR (STUDY DURATION: LIFETIME), Strain/Sex: SPRAGUE-DAWLEY/FEMALE, Target Tissue: Type of Lesion: MAMMARY GLAND: TUMOR, Dose [Carcinogen]: 35 MG/KG ONCE AT 50 DAYS OF AGE, Promoter: NONE USED) was 93%, 95%, -2%, not calculated; the “tumour outcome (control, treated, inhibition, significance)” value (Carcinogen: N-METHYL-N-NITROSOUREA, 684-93-5, Dose [Inhibitor]: 0, 782 MG/KG DIET BEGINNING AFTER THE SURGICAL REMOVAL OF THE FIRST PALPABLE TUMOR (STUDY DURATION: LIFETIME), Strain/Sex: SPRAGUE-DAWLEY/FEMALE, Target Tissue: Type of Lesion: MAMMARY GLAND: TUMOR, Dose [Carcinogen]: 35 MG/KG ONCE AT 50 DAYS OF AGE, Promoter: NONE USED) is 93%, 89%, 4%, not calculated; the “tumour outcome (control, treated, inhibition, significance)” value (Carcinogen: N-METHYL-N-NITROSOUREA, 684-93-5, Dose [Inhibitor]: 0, 782 MG/KG DIET REDUCED TO 391 MG/KG DIET 2 WK POST CARCINOGEN DOSE (STUDY DURATION: 450 D), Strain/Sex: WISTAR-UNILEVER/MALE, Target Tissue: Type of Lesion: PROSTATE/SEMINAL VESICLE: ADENOCARCINOMA, Dose [Carcinogen]: 50 MG/KG BW ONCE, Promoter: TESTOSTERONE PROPIONATE, 57-85-2) is given as 67%, 62%, 7%, not significant; the “tumour outcome (control, treated, inhibition, significance)” value (Carcinogen: N-METHYL-N-NITROSOUREA, 684-93-5, Dose [Inhibitor]: 0, 782 MG/KG OF CASEIN-BASED AIN-76A DIET FOR DURATION OF STUDY BEGINNING 7 D POST CARCINOGEN DOSE (STUDY DURATION: 25 W, Strain/Sex: F344/FEMALE, Target Tissue: Type of Lesion: MAMMARY GLAND: TUMOR, Dose [Carcinogen]: 45 MG/KG BW ONCE AT 5O D OF AGE, Promoter: NONE USED) is recorded as 18/25 (72%), 20/25 (80%), -11%, not significant; the “tumour outcome (control, treated, inhibition, significance)” value (Carcinogen: N-METHYL-N-NITROSOUREA, 684-93-5, Dose [Inhibitor]: 0, 782 MG/KG OF DIET FOR DURATION OF STUDY BEGINNING 1 WK PRIOR TO CARCINOGEN TREATMENT (STUDY DURATION: 117 D), Strain/Sex: SPRAGUE-DAWLEY/FEMALE, Target Tissue: Type of Lesion: MAMMARY GLAND: ADENOCARCINOMA, Dose [Carcinogen]: 50 MG/KG BW ONCE, Promoter: NONE USED) was 100%, 42%, 58%, not calculated. Also, the “tumour outcome (control, treated, inhibition, significance)” value (Carcinogen: N-METHYL-N-NITROSOUREA, 684-93-5, Dose [Inhibitor]: 0, 782 MG/KG OF GRAIN-BASED NIH-07 DIET FOR DURATION OF STUDY BEGINNING 7 D PRIOR TO CARCINOGEN DOSE (STUDY DURATION: 26, Strain/Sex: F344/FEMALE, Target Tissue: Type of Lesion: MAMMARY GLAND: TUMOR, Dose [Carcinogen]: 45 MG/KG BW ONCE AT 50 D OF AGE, Promoter: NONE USED) was 13/25 (52%), 7/25 (28%), 46%, not significant.
